From patent US10695322B2 (priority 2016, dated 2020)
Where two headings read alike, the source gives them in different places.

Key:
LdtMt2 [1] = target: T1, LdtMt2 (Mycobacterium tuberculosis, UniProt I6Y9J2); format: binding, M. tuberculosis; conditions: UPLC-MS
M. tuberculosis [2] = format: in vivo, BALB/c mice
LdtMt2 [3] = target: T1, LdtMt2; assay: biochemical; set-up: species or system M. tuberculosis
human DHP-1 = target: T2, human DHP-1 (Homo sapiens, UniProt P16444); conditions: cited from earlier work
T2 sequence (P16444 17-385): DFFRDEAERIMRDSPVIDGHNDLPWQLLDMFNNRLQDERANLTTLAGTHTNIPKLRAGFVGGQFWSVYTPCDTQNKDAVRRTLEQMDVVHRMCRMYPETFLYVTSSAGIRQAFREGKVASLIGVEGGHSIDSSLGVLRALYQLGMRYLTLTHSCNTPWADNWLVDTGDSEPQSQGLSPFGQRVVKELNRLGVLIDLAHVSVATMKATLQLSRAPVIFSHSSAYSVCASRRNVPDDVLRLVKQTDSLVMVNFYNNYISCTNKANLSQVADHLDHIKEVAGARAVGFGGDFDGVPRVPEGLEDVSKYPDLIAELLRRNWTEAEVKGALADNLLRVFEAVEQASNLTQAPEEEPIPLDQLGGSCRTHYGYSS

M. tuberculosis [4] = conditions: mouse, in vivo; cited from earlier work
M. tuberculosis [5] = conditions: oral gavage; recent report; cited from earlier work
[6] = target: LdtMab2, wild-type (MAB_1530, orthologue of LdtMt2; fragment without putative transmembrane domain) (Mycobacteroides abscessus, UniProt B1MMQ4); assay: biochemical; format: binding, Mycobacterium abscessus; conditions: Figure 6; ITC, wt, protein 150 μM, ligand 2 mM, pH 8.0, 24° C.
Chain of LdtMab2, wild-type (MAB_1530, orthologue of LdtMt2; fragment without putative transmembrane domain) (B1MMQ4 32-406): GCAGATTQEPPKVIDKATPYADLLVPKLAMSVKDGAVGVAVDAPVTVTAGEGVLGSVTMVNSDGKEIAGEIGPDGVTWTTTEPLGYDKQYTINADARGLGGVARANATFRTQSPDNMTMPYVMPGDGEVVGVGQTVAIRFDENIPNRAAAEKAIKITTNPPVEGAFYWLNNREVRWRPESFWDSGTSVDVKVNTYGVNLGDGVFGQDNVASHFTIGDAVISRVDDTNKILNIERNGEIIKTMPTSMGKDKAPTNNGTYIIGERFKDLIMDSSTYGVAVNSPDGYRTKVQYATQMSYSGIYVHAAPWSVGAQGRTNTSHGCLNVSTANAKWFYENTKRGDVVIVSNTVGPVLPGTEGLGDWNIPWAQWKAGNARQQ

[7] = target: LdtMab1, wild-type (MAB_3165c, orthologue of LdtMt1) (Mycobacteroides abscessus, UniProt B1MDC1); assay: biochemical; format: binding, Mycobacterium abscessus; conditions: Figure 6; ITC, wt, protein 150 μM, ligand 2 mM, pH 8.0, 24° C.
Chain of LdtMab1, wild-type (MAB_3165c, orthologue of LdtMt1) (B1MDC1 21-248): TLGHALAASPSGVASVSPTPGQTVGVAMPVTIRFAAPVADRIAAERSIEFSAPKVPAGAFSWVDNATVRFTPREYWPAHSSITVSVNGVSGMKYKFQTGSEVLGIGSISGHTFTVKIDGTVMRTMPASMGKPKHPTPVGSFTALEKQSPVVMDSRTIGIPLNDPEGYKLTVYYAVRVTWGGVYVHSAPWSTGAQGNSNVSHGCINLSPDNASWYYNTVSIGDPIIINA

[8] = 10 μM LdtMt2, MES pH 6.5, 10° C.

T1 sequence (I6Y9J2 56-408 limits assumed): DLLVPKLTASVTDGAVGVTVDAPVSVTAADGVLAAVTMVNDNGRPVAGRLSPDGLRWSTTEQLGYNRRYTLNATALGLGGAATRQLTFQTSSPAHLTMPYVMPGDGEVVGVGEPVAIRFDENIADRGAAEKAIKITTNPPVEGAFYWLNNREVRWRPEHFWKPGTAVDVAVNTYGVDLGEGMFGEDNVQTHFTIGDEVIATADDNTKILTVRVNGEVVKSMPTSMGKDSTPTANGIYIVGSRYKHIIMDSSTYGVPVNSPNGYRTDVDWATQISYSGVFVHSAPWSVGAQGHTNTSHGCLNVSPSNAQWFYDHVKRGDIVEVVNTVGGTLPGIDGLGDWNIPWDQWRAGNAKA

C[C@@H](O)[C@H]1C(=O)N2C(C(=O)[O-])=C(SC3Cn4cnc[n+]4C3)[C@H](C)[C@H]12 (stereo partly shown) [biapenem]
mass of stable adduct with wild-type LdtMt2 (LdtMt2 [1]): +138 Da
gross pathology of lungs (tuberculous lesions) (M. tuberculosis [2]; mouse, in vivo): no tuberculous lesions
M. tuberculosis burden in the lungs (M. tuberculosis [2]; three weeks of treatment): no less effective than rifampicin
bactericidal activity in vivo (M. tuberculosis [2]; three weeks of treatment): lacked bactericidal activity
Kapp (LdtMt2 [3]; [8]): 15.3 ± 2.5 µM
kinact (LdtMt2 [3]; 10 μM LdtMt2, MES pH 6.5, 10° C., read-out: kinact (converted)): 0.06 s⁻¹
kinact/KI (LdtMt2 [3]; read-out: kinact/Kapp ratio): 3830 M⁻¹ s⁻¹
metabolism by human DHP-1 (human DHP-1): not readily metabolized

C[C@@H](O)[C@H]1C(=O)N2C(C(=O)O)=C(S[C@@H]3CN[C@H](C(=O)N(C)C)C3)[C@H](C)[C@H]12 [meropenem]
activity in macrophages and mice infected with M. tuberculosis (M. tuberculosis [4]): limited activity

Cc1oc(=O)oc1COC(=O)C1=C([C@H]2CCCO2)S[C@@H]2[C@@H]([C@@H](C)O)C(=O)N12 [faropenem medoxomil]
M. tuberculosis burden in the lungs (M. tuberculosis [5]): ineffective

C[C@@H](O)[C@H]1C(=O)N2C(C(=O)O)=C(SC3CN(C4=NCCS4)C3)[C@H](C)[C@H]12 [tebipenem]
Kd [6]: 6.1 µM
Kd [7]: 0.82 µM
Kapp (LdtMt2 [3]; [8]): 38.4 ± 9.7 µM
